Molecules are shown by their SMILES.

For experiment [1], the system named is MCF7 LTLT primary tumors. In words: Ki67 proliferation index by immunohistochemistry on fixed mammary glands, MCF7 LTLT MIND model. The format is in vivo, NSG mice. The conditions noted are these: for Ki67 percentage (mean +/− standard deviation): Let+ cohort (all groups also received letrozole 10 μg/day); for % Ki67 % mean: MCF7 LTLT primary tumors, IHC at sacrifice after 90-93 days of treatment, manual counting, Let− cohort, and Let+ cohort where label includes letrozole; for Effect on Ki67 percentage / proliferation index (in words): MCF7 LTLT model, comparisons as stated. How it is done:
(§1) After cell injection, mice were separated into 2 equal groups; one group received 10 μg/day of letrozole in 15% PEG400 in PBS via subcutaneous injection, “LTLT-Let”; the other group wasn't administered letrozole (“LTLT”). Two to three weeks after cell injections, mice in each group were randomized and treated 5 days/week with lasofoxifene (10 mg/kg, in 100 μl of PBS containing 15% PEG400), palbociclib (70 mg/kg, Med Chem Express #HY-50567, in 50 mM sodium lactate buffer pH4), or vehicle. Lasofoxifene and vehicle were administered subcutaneously. Palbociclib was administered via oral gavage 5 times/week. Fulvestrant (Med Chem Express #HY-13636) (“IC”) (5 mg/mouse) was administered once per week via subcutaneous injection in 100 μl of mineral oil. Mice were also treated with combinations of lasofoxifene+palbociclib, fulvestrant+palbociclib, lasofoxifene+letrozole and palbociclib or fulvestrant+palbociclib, or letrozole.
Harvested tissues were fixed in formalin for IHC and H&E staining. Tissue histology was performed by the Human Tissue Resource Center (HRTC) at the University of Chicago. Primary Glands excised from the mice were sectioned and stained with antibodies to estrogen receptor alpha (ThermoScientific, RM-9101-S0, clone SP1), progesterone receptor (ThermoScientific, RM-9102-S0, clone SP2), glucocorticoid receptor (Cell Signaling, Cat #3660), androgen receptor (Abcam, ab133273, clone EPR1535), Ki67 (ThermoScientific, Cat #RM-9106-s, Clone: SP6) and human-specific mouse monoclonal antibody to mitochondria (Abcam, ab92824, clone 112-1).
(§2) H&E and IHC slides were scanned on a Nikon eclipse Ti2 microscope with a 10× objective for high resolution images. Ki67 score was determined using standardized manual counting.
Immunohistochemistry with anti-Ki67 antibody was performed on fixed mammary glands to determine the proliferation index for MCF7 LTLT primary tumors.

The conditions of experiment [2]: post-menopausal women with no history of breast cancer, wild estrogen receptors; cited from earlier work.
In experiment [3] the test system is MCF7 LTLT primary tumors. In words: Mammary gland weight at sacrifice, MCF7 LTLT MIND model. The conditions noted are these: Let− cohort. It counts as in vivo, NSG mice. How it is done: Mouse studies were performed in compliance with an approved Institutional Animal Care and Use Committee protocol. NSG (NOD.Cg-Prkdcscid Il2rgtmlWjl/SzJ) mice were purchased from The Jackson Laboratories. Prior to injection, mice were anesthetized via inhalation with 2-3% isoflurane in oxygen. Injections of single-cell suspensions of 250,000 MCF7 cells in the mammary ducts of inguinal glands 4 and 9 were performed as described (Behbod, F., et al. Breast Cancer Res. 11, R66 (2009); Sflomos, G., et al. Cancer Cell 29, 407-422 (2016); Laine, M., et al. Breast Cancer Res. 23, 54 (2021)). Tumor growth in situ was followed via imaging in a Xenogen IVIS 200 instrument in the Integrated Small Animal Imaging Research Resource at the University of Chicago. For IVIS imaging, mice were injected with 100 μl of a 0.1 M luciferin solution in PBS (Perkin Elmer XenoLight #122799).
After cell injection, mice were separated into 2 equal groups; one group received 10 μg/day of letrozole in 15% PEG400 in PBS via subcutaneous injection, “LTLT-Let”; the other group wasn't administered letrozole (“LTLT”). Two to three weeks after cell injections, mice in each group were randomized and treated 5 days/week with lasofoxifene (10 mg/kg, in 100 μl of PBS containing 15% PEG400), palbociclib (70 mg/kg, Med Chem Express #HY-50567, in 50 mM sodium lactate buffer pH4), or vehicle. […]

Experiment [4] deals with MCF-7 xenograft with activating ERα mutations. The conditions noted are these: gain-of-function activating mutations in the ERα receptor; previous studies; cited from earlier work.
A further experiment deals with MCF7 LTLT cells. Kind of experiment: Ex vivo IVIS radiance of excised liver, lung, brain and bone at sacrifice (metastasis), MCF7 LTLT MIND model. Also on record: species or system NSG mice. Conditions: ex vivo radiance in bones at sacrifice. Here is the method: as §1
After 90-93 days of treatment, mice were sacrificed, and mammary gland tumors were excised and weighed. Liver, bone brain and lungs were removed and imaged ex vivo in the IVIS 200, following an in vivo injection of luciferin 8 min prior to sacrifice, to measure luciferase activity.
At sacrifice, livers, lungs, bones and brains were excised and imaged ex vivo on the IVIS. […] Data for Let^+ group were evaluated but are not shown.

Experiment [5] concerns MCF7 LTLT (AI-resistant, ER+, cells lacking ESR1 gain-of-function mutations) tumors. Kind of experiment: MIND model: luciferase-GFP MCF7 LTLT cells in mammary ducts of NSG mice, live luminescence imaging of primary tumors (total photon flux). The format is in vivo. Conditions: for Inhibition of primary tumor growth (conclusion in words): MCF7 LTLT tumors, AI-resistant, no ESR1 gain-of-function mutations. Here is the method:
Luciferase-GFP tagged LTLT cells were injected into the mammary ducts of NSG mice (MIND model) and tumor progression was monitored by live luminescence imaging of primary tumors, as well as ex vivo imaging and histochemical analysis of metastatic sites at study endpoint. Primary tumor area was also measured at study endpoint.
Cells were grown in RPMI containing 10% FBS and 1 μM letrozole.
Mouse studies were performed in compliance with an approved Institutional Animal Care and Use Committee protocol. NSG (NOD.Cg-Prkdcscid Il2rgtmlWjl/SzJ) mice were purchased from The Jackson Laboratories. Prior to injection, mice were anesthetized via inhalation with 2-3% isoflurane in oxygen. […] Tumor growth in situ was followed via imaging in a Xenogen IVIS 200 instrument in the Integrated Small Animal Imaging Research Resource at the University of Chicago.
Lasofoxifene and vehicle were administered subcutaneously. Palbociclib was administered via oral gavage 5 times/week. […] Mice were also treated with combinations of lasofoxifene+palbociclib, fulvestrant+palbociclib, lasofoxifene+letrozole and palbociclib or fulvestrant+palbociclib, or letrozole.
MCF7 LTLT cells labeled with GFP luciferase were injected into the mammary ducts of NSG mice to establish tumors that represent an AI resistant, non-ESR1-mutated, breast cancer model. Treatment with lasofoxifene, palbociclib and combinations of lasofoxifene and palbociclib were carried out in the presence (Let^+) or absence (Let^−) of letrozole, to account for the potential loss of letrozole resistance (“reversion”) in the Let^− cohort. Mice were imaged every other week in a Xenogen IVIS scanner to estimate tumor growth. At the end of the study, mammary glands were removed and weighed.

For experiment [6], the system named is MCF7 LTLT primary tumors. Kind of experiment: Percent tumor area vs total gland area by H&E of mammary gland sections, MCF7 LTLT MIND model. It counts as in vivo, NSG mice. Conditions: Let− cohort. How it is done:
as §1
Harvested tissues were fixed in formalin for IHC and H&E staining. Tissue histology was performed by the Human Tissue Resource Center (HRTC) at the University of Chicago. […]
as §2
H&E slides were scanned on a Nikon microscope and analyzed with the NSI element software.

As for `CC(=O)c1c(C)c2cnc(Nc3ccc(N4CCNCC4)cn3)nc2n(C2CCCC2)c1=O` [palbociclib], in the experiment with MCF7 LTLT primary tumors [1], the “Ki67 percentage (mean +/− standard deviation)” value was 45.3+/−19.0% and the “% Ki67 % mean” value was determined as 51.7%.
For `Oc1ccc2c(c1)CC[C@H](c1ccccc1)[C@@H]2c1ccc(OCCN2CCCC2)cc1` [lasofoxifene], the “Risk of ER+ breast cancer (in words)” value in experiment [2] is given as “reduce the risk of ER^+ breast cancer”. Further, in the experiment with MCF7 LTLT primary tumors [3], the “Mammary gland weight at end of study (in words)” value is given as “inhibits increases in primary tumor weight”. Further, in experiment [4], the “Inhibition of tumor growth and metastasis compared with fulvestrant (in words)” value is “more effective than fulvestrant at inhibiting tumor growth and metastasis to the liver, lung, bone and brain”. For the same molecule, the “Bone metastasis / bone radiance versus vehicle (in words)” value with MCF7 LTLT cells is reported as “appears to inhibit metastasis to the bone”. Moreover, the “Inhibition of primary tumor growth (conclusion in words)” value in experiment [5] is reported as “significantly inhibits primary tumor growth”; in experiment [5] (listed as Lasofoxifene), “significantly more effective than fulvestrant”. Also, in experiment [5] (day 104, regardless of the presence of letrozole), the “Photon flux at day 104 (in words)” value was “significantly lower than vehicle and fulvestrant (ICI) treatment”. For the same molecule, in the experiment on MCF7 LTLT primary tumors [6], the “% tumor area of total gland area, H&E (in words)” value was “significantly lower”. Further, in the experiment on MCF7 LTLT primary tumors [1] (Let+ cohort, versus letrozole control), the “Reduction of the Ki67 percentage” value amounted to 6.5%. The “% Ki67 % mean” value with MCF7 LTLT primary tumors [1] worked out at 46.0%.
As for `N#Cc1ccc(C(c2ccc(C#N)cc2)n2cncn2)cc1` [letrozole], in the experiment with MCF7 LTLT primary tumors [1], the “Ki67 percentage (mean +/− standard deviation)” value is recorded as 39.5+/−7.7% and the “% Ki67 % mean” value was 39.5%. The “Effect on Ki67 percentage / proliferation index (in words)” value in the experiment with MCF7 LTLT primary tumors [1] (Let+ cohort) is listed as “significantly lowers the Ki67 percentage”.
`C[C@]12CC[C@@H]3c4ccc(O)cc4C[C@@H](CCCCCCCCC[S+]([O-])CCCC(F)(F)C(F)(F)F)[C@H]3[C@@H]1CC[C@@H]2O` (stereo partly shown) [fulvestrant (ICI), fulvestrant]: the “Mammary gland weight at end of study (in words)” value in the experiment on MCF7 LTLT primary tumors [3] is “inhibits mammary gland weight”. The “Bone readings with a signal above threshold” value with MCF7 LTLT cells was found to be 2 readings. Further, the “Tumor photon flux in the presence of letrozole (in words)” value in experiment [5] (Let+ cohort, data not shown) is reported as “appeared to increase tumor photon flux”. The “Total photon flux over time (in words)” value in experiment [5] (imaged every other week, Let− cohorts shown) was “higher than all other treatments”. Moreover, the “% tumor area of total gland area, H&E (in words)” value with MCF7 LTLT primary tumors [6] is “did not reach statistical significance”. In addition, in the experiment with MCF7 LTLT primary tumors [1] (Let+ cohort), the “Effect on Ki67 percentage / proliferation index (in words)” value is “do not reduce Ki67% levels”. Further, the “% Ki67 % mean” value with MCF7 LTLT primary tumors [1] was 56.8%.

Source of the values: US12433866B2, “Lasofoxifene treatment of aromatase-resistant ER+ cancer” (Sermonix Pharmaceuticals, Inc., priority 2021, dated 2025).
